Results: article PMC7760004, “Hydrocarbon-Stapled Peptide Based-Nanoparticles for siRNA Delivery” (Nanomaterials, 2020)
Peptide text beside a SMILES is read from it. * marks the point of attachment. FITC = O=C1OC2(c3ccc(O)cc3Oc3cc(O)ccc32)c2ccc(NC(=S)*)cc21; Ahx = NCCCCCC(=O)O

What was measured:
[1] = Circular dichroism, determination of helical content; type: physicochemical; details: water/TFE (95/5)
Description: Circular dichroism experiments were carried out using a Jasco J815 spectropolarimeter. Spectra (Jasco, Easton, MD, USA) were typically recorded with 100 μM of peptides dissolved in a water/TFE mixture (95/5), pH 7, using a 1 mm pathlength CD cuvette at 20 °C, over a wavelength range of 190–260 nm. The peptide concentrations were normalized measuring the OD at 490 nm considering a molar coefficient extinction (ε490) for the FITC of 76,900 cm^−1 M^−1. Continuous scanning mode was used, with a response of 1.0 s with 0.1 nm steps and a bandwidth of 2 nm. The signal to noise ratio was improved by acquiring each spectrum over an average of two scans. Baseline was corrected by subtracting the background from the sample spectrum. Alpha helical content was determined using the following equation: % Helix = ([θ])obs × 100)/(−39,500 × (1 − 2.57/n), where ([θ])obs is the mean residue ellipticity at 222 nm and n the number of peptide bonds.

MDA-MB-231 cells = assay: Cellular uptake of FITC-stapled peptides (plate-reader fluorescence); details: MDA-MB-231, 5 µM FITC-peptide, 4 h
Description: MDA-MB-231 cells were seeded in black 96-well plate in 200 μL of their corresponding medium. After 24 h of cell growth, cells were treated with 5 µM concentration of FITC-stapled peptides for 4 h. Total fluorescence (TF) was measured using CLARIOstar® High Performance Monochromator Multimode Microplate Reader (BMG Labtech, Ortenberg, Germany) at excitation/emission of 483-14/530-30 nm. Cells were washed three times with PBS and remaining fluorescence (RF) was measured using the same conditions. The percentage of uptake values were presented as relative mean fluorescence and normalized with respect to Penetratin used as a standard control and set at 100%.

With `CC[C@H](C)[C@H](NC(=O)[C@H](C)NC(=O)[C@H](CCCNC(=N)N)NC(=O)[C@H](CCCNC(=N)N)NC(=O)CCCCCNC(=S)Nc1ccc2c(c1)C(=O)OC21c2ccc(O)cc2Oc2cc(O)ccc21)C(=O)N[C@H](C(=O)N[C@H](C(=O)N[C@@H](C)C(=O)N[C@@H](CCCNC(=N)N)C(=O)N[C@@H](CCCNC(=N)N)C(=O)N[C@@H](CS)C(N)=O)[C@@H](C)CC)[C@@H](C)CC` [JMV6579] ({FITC-Ahx}-RRAIIIARRC-NH2) the “α Helix (%)” value ([1]; CD, 100 μM peptide, pH 7, 20 °C, from mean residue ellipticity at 222 nm) was 5%, the “CD profile (folding)” value ([1]; far-UV CD, 20 °C) was “remained partially unfolded” and the “ability to enter cells (uptake, in words)” value (MDA-MB-231 cells) was “almost not able to enter cells”.
